Patent US20240384350A1, “METHODS OF TREATING CANCER WITH KINASE INHIBITORS” (BOARD OF REGENTS, THE UNIVERSITY OF TEXAS SYSTEM, priority 2021, published 2024)

Key:
Assay in all cases: Ba/F3 drug screening, Cell Titer Glo, IC50 Mut/WT
Format in all cases: cell-based
[1] = biological target: T1, EGFR Ex19del/C797S (Homo sapiens, UniProt P00533, C797S/DEL746-750); settings: Ba/F3 cells, EGFR Ex19del/C797S (PACC), Mut/WT
T1 construct: expressed in transfected cells; host or cells: Ba/F3

[2] = biological target: T2, EGFR L861Q (Homo sapiens, UniProt P00533, L861Q); settings: Classical-Like, 72 hours
T2 construct: expressed in transfected cells; host or cells: Ba/F3 cells, retroviral pBabe-Puro vector

[3] = biological target: T3, EGFR L858R/L718V (Homo sapiens, UniProt P00533, L718V/L858R); settings: Ba/F3 cells, EGFR L858R/L718V (PACC), Mut/WT
T3 construct: host or cells: Ba/F3

[4] = biological target: T4, EGFR Ex19del T790M (Homo sapiens, UniProt P00533, DEL746-750/T790M); settings: T790M-like-3S, 72 hours
T4 construct: expressed in transfected cells; host or cells: Ba/F3
Protocol: (§1) Data represent the ratio of the IC50 value for a given TKI for cells with a T790M-like-3S EGFR mutation to the IC50 value for cells with wildtype EGFR.
(§2) Ba/F3 cell generation, drug screening, and IC50 approximations. Ba/F3 cells were obtained as a gift from Dr. Gordon Mills (MD Anderson Cancer Center), and maintained in RPMI (Sigma) containing 10% FBS, 1% penicillin/streptomycin, and 10 ng/ml recombinant mIL-3 (R&D Biosystems). To establish stable Ba/F3 cell lines, Ba/F3 cells were transduced with retroviruses containing mutant EGFR plasmids for 12-24 hours.
(§3) After 48-72 hours of transduction, 2 μg/ml puromycin (Invitrogen) was added to Ba/F3 cell lines in complete RPMI. To select for EGFR positive cell lines, cells were stained with PE-EGFR (Biolegend) and sorted by FACS. After sorting, EGFR positive cells were maintained in RPMI containing 10% FBS, 1% penicillin/streptomycin, and 1 ng/ml EGF to support cell viability. Drug screening was performed as previously described^41,42. Shortly, cells were plated in 384-well plates (Greiner Bio-One) at 2000-3000 cells per well in technical triplicate. Seven different concentrations of TKIs or DMSO vehicle were added to reach a final volume of 40 μL per well. After 72 hours, 11 μL of Cell Titer Glo (Promega) was added to each well. Plates were incubated for a minimum of 10 minutes, and bioluminescence was determined using a FLUOstar OPTIMA plate reader (BMG LABTECH). Raw bioluminescence values were normalized to DMSO control treated cells, and values were plotted in GraphPad Prism. […] Drug screens were performed in technical triplicate on each plate and either duplicate or triplicate biological replicates.

[5] = biological target: T5, EGFR L858R/C797S (Homo sapiens, UniProt P00533, C797S/L858R); settings: Ba/F3 cells, EGFR L858R/C797S (PACC), Mut/WT
T5 construct: expressed in transfected cells; host or cells: Ba/F3

[6] = biological target: T6, EGFR G719S T790M (Homo sapiens, UniProt P00533, G719S/T790M); settings: T790M-like-3S, 72 hours
T6 construct: expressed in transfected cells; host or cells: Ba/F3
Protocol: as §1, §2, §3

[7] = biological target: T7, EGFR A763insFQEA (Homo sapiens, UniProt P00533, INS763FQEA); settings: Classical-Like, 72 hours
T7 construct: expressed in transfected cells; host or cells: Ba/F3 cells, retroviral pBabe-Puro vector

[8] = biological target: T8, EGFR G719A (Homo sapiens, UniProt P00533, G719A); settings: Ba/F3 cells, EGFR G719A (PACC), Mut/WT
T8 construct: expressed in transfected cells; host or cells: Ba/F3
Protocol: (§4) Data represent the ratio of the IC50 value for a given TKI for cells with a PACC EGFR mutation to the IC50 value for cells with wildtype EGFR.
as §2, §3

[9] = biological target: T9, EGFR G719S (Homo sapiens, UniProt P00533, G719S); settings: Ba/F3 cells, EGFR G719S (PACC), Mut/WT
T9 construct: expressed in transfected cells; host or cells: Ba/F3

[10] = biological target: T10, EGFR D761N (Homo sapiens, UniProt P00533, D761N); settings: Classical-Like, 72 hours
T10 construct: expressed in transfected cells; host or cells: Ba/F3 cells, retroviral pBabe-Puro vector

[11] = biological target: T11, EGFR G719A T790M (Homo sapiens, UniProt P00533, G719A/T790M); settings: T790M-like-3S, 72 hours
T11 construct: expressed in transfected cells; host or cells: Ba/F3
Protocol: as §1, §2, §3

[12] = biological target: T12, EGFR A763insLQEA (Homo sapiens, UniProt P00533, INS763LQEA); settings: Classical-Like, 72 hours
T12 construct: expressed in transfected cells; host or cells: Ba/F3 cells, retroviral pBabe-Puro vector
Protocol: (§5) Data represent the ratio of the IC50 value for a given TKI for cells with a classical-like EGFR mutation to the IC50 value for cells with wildtype EGFR.
as §2
(§6) After 48-72 hours of transduction, 2 μg/ml puromycin (Invitrogen) was added to Ba/F3 cell lines in complete RPMI. To select for EGFR positive cell lines, cells were stained with PE-EGFR (Biolegend) and sorted by FACS. After sorting, EGFR positive cells were maintained in RPMI containing 10% FBS, 1% penicillin/streptomycin, and 1 ng/ml EGF to support cell viability. […] Shortly, cells were plated in 384-well plates (Greiner Bio-One) at 2000-3000 cells per well in technical triplicate. Seven different concentrations of TKIs or DMSO vehicle were added to reach a final volume of 40 μL per well. After 72 hours, 11 μL of Cell Titer Glo (Promega) was added to each well. Plates were incubated for a minimum of 10 minutes, and bioluminescence was determined using a FLUOstar OPTIMA plate reader (BMG LABTECH). Raw bioluminescence values were normalized to DMSO control treated cells, and values were plotted in GraphPad Prism. […] Drug screens were performed in technical triplicate on each plate and either duplicate or triplicate biological replicates.

[13] = biological target: T13, EGFR L858R T790M L792H (Homo sapiens, UniProt P00533, L792H/L858R/T790M); settings: T790M-like-3S, 72 hours
T13 construct: expressed in transfected cells; host or cells: Ba/F3

[14] = biological target: T14, EGFR E709A (Homo sapiens, UniProt P00533, E709A); settings: Ba/F3 cells, EGFR E709A (PACC), Mut/WT
T14 construct: expressed in transfected cells; host or cells: Ba/F3
Protocol: as §4, §2, §3

[15] = biological target: T15, EGFR Ex19del L718V (Homo sapiens, UniProt P00533, DEL746-750/L718V); settings: Ba/F3 cells, EGFR Ex19del L718V (PACC), Mut/WT
T15 construct: expressed in transfected cells; host or cells: Ba/F3
Protocol: as §4, §2, §3

[16] = biological target: T16, EGFR S720P (Homo sapiens, UniProt P00533, S720P); settings: Classical-Like, 72 hours
T16 construct: expressed in transfected cells; host or cells: Ba/F3 cells, retroviral pBabe-Puro vector (vector made by GeneScript from EGFR WT)
Protocol: as §5, §2, §6

[17] = biological target: T17, EGFR E709K L858R (Homo sapiens, UniProt P00533, E709K/L858R); settings: Classical-Like, 72 hours
T17 construct: expressed in transfected cells; host or cells: Ba/F3 cells, retroviral pBabe-Puro vector
Protocol: as §5, §2, §6

[18] = biological target: T18, EGFR S768dupSVD (Homo sapiens, UniProt P00533, DUP768-770); settings: Ex20, 72 hours
T18 construct: expressed in transfected cells; host or cells: Ba/F3 cells, retroviral pBabe-Puro vector

[19] = biological target: T19, EGFR L718V (Homo sapiens, UniProt P00533, L718V); settings: Ba/F3 cells, EGFR L718V (PACC), Mut/WT
T19 construct: expressed in transfected cells; host or cells: Ba/F3

[20] = biological target: T20, EGFR Ex19del/T790M/L792H (Homo sapiens, UniProt P00533, DEL746-750/L792H/T790M); settings: T790M-like-3R, 72 hours
T20 construct: expressed in transfected cells; host or cells: Ba/F3
Protocol: Data represent the ratio of the IC50 value for a given TKI for cells with a T790M-like-3R EGFR mutation to the IC50 value for cells with wildtype EGFR.
as §2
After 48-72 hours of transduction, 2 μg/ml puromycin (Invitrogen) was added to Ba/F3 cell lines in complete RPMI. To select for EGFR positive cell lines, cells were stained with PE-EGFR (Biolegend) and sorted by FACS. After sorting, EGFR positive cells were maintained in RPMI containing 10% FBS, 1% penicillin/streptomycin, and 1 ng/ml EGF to support cell viability. […] Shortly, cells were plated in 384-well plates (Greiner Bio-One) at 2000-3000 cells per well in technical triplicate. Seven different concentrations of TKIs or DMSO vehicle were added to reach a final volume of 40 μL per well. After 72 hours, 11 μL of Cell Titer Glo (Promega) was added to each well. Plates were incubated for a minimum of 10 minutes, and bioluminescence was determined using a FLUOstar OPTIMA plate reader (BMG LABTECH). Raw bioluminescence values were normalized to DMSO control treated cells, and values were plotted in GraphPad Prism. […] Drug screens were performed in technical triplicate on each plate and either duplicate or triplicate biological replicates. […] Statistical differences between groups were determined by ANOVA as described in the figure legends.

[21] = biological target: T21, EGFR G724S (Homo sapiens, UniProt P00533, G724S); settings: Ba/F3 cells, EGFR G724S (PACC), Mut/WT
T21 construct: expressed in transfected cells; host or cells: Ba/F3

[22] = biological target: T22, EGFR T790M (Homo sapiens, UniProt P00533, T790M); settings: T790M-like-3S, 72 hours
T22 construct: expressed in transfected cells; host or cells: Ba/F3
Protocol: as §1, §2, §3

[23] = biological target: T23, EGFR Ex19del T790M C797S (Homo sapiens, UniProt P00533, C797S/DEL746-750/T790M); settings: T790M-like-3R, 72 hours
T23 construct: expressed in transfected cells; host or cells: Ba/F3

[24] = biological target: T24, EGFR E709K (Homo sapiens, UniProt P00533, E709K); settings: Ba/F3 cells, EGFR E709K (PACC), Mut/WT
T24 construct: expressed in transfected cells; host or cells: Ba/F3

[25] = biological target: T25, EGFR E709K G719S (Homo sapiens, UniProt P00533, E709K/G719S); settings: Ba/F3 cells, EGFR E709K G719S (PACC), Mut/WT
T25 construct: expressed in transfected cells; host or cells: Ba/F3
Protocol: as §4, §2, §3

[26] = biological target: T26, EGFR Ex19del G796S (Homo sapiens, UniProt P00533, DEL746-750/G796S); settings: Ba/F3 cells, EGFR Ex19del G796S (PACC), Mut/WT
T26 construct: expressed in transfected cells; host or cells: Ba/F3

[27] = biological target: T27, EGFR N771dupN (Homo sapiens, UniProt P00533, DUP771-771); settings: Ex20, 72 hours
T27 construct: expressed in transfected cells; host or cells: Ba/F3 cells, retroviral pBabe-Puro vector

Row | SMILES | ratio of the IC50 value for cells with a PACC EGFR mutation to the IC50 value for cells with wildtype EGFR [1] | ratio of IC50 for cells with mutant EGFR to IC50 for cells with wildtype EGFR (Mut/WT) [2] | ratio of the IC50 value for cells with a PACC EGFR mutation to the IC50 value for cells with wildtype EGFR [3] | ratio of IC50 for cells with mutant EGFR to IC50 for cells with wildtype EGFR (Mut/WT) [4] | ratio of the IC50 value for cells with a PACC EGFR mutation to the IC50 value for cells with wildtype EGFR [5] | ratio of IC50 for cells with mutant EGFR to IC50 for cells with wildtype EGFR (Mut/WT) [6] | ratio of IC50 for cells with mutant EGFR to IC50 for cells with wildtype EGFR (Mut/WT) [7] | ratio of the IC50 value for cells with a PACC EGFR mutation to the IC50 value for cells with wildtype EGFR [8] | ratio of the IC50 value for cells with a PACC EGFR mutation to the IC50 value for cells with wildtype EGFR [9] | ratio of IC50 for cells with mutant EGFR to IC50 for cells with wildtype EGFR (Mut/WT) [10] | ratio of IC50 for cells with mutant EGFR to IC50 for cells with wildtype EGFR (Mut/WT) [11] | ratio of IC50 for cells with mutant EGFR to IC50 for cells with wildtype EGFR (Mut/WT) [12] | ratio of IC50 for cells with mutant EGFR to IC50 for cells with wildtype EGFR (Mut/WT) [13] | ratio of the IC50 value for cells with a PACC EGFR mutation to the IC50 value for cells with wildtype EGFR [14] | ratio of the IC50 value for cells with a PACC EGFR mutation to the IC50 value for cells with wildtype EGFR [15] | ratio of IC50 for cells with mutant EGFR to IC50 for cells with wildtype EGFR (Mut/WT) [16] | ratio of IC50 for cells with mutant EGFR to IC50 for cells with wildtype EGFR (Mut/WT) [17] | ratio of IC50 for cells with mutant EGFR to IC50 for cells with wildtype EGFR (Mut/WT) [18] | ratio of the IC50 value for cells with a PACC EGFR mutation to the IC50 value for cells with wildtype EGFR [19] | ratio of IC50 for cells with mutant EGFR to IC50 for cells with wildtype EGFR (Mut/WT) [20] | other results
1 | C=CC(=O)Nc1cc(Nc2ncc(C(=O)OC(C)C)c(-c3cn(C)c4ccccc34)n2)c(OC)cc1N(C)CCN(C)C [TAK-788 (mobocertinib), mobocertinib] | 43.27 | 0.8467 | 3.491 | 0.2391 | 57.42 | 1.302 | 0.473 | 1.676 | 2.056 | 0.363 | 0.4864 | 0.03374 | 3.326 | 1.583 | 1.296 | 0.111 | 0.008356 | 0.2515 | 39.29 | 0.885 | ratio of the IC50 value for cells with a PACC EGFR mutation to the IC50 value for cells with wildtype EGFR [21]: 108.6; ratio of IC50 for cells with mutant EGFR to IC50 for cells with wildtype EGFR (Mut/WT) [22]: 1.315; ratio of IC50 for cells with mutant EGFR to IC50 for cells with wildtype EGFR (Mut/WT) [23]: 117.8; ratio of the IC50 value for cells with a PACC EGFR mutation to the IC50 value for cells with wildtype EGFR [24]: 10.68; ratio of the IC50 value for cells with a PACC EGFR mutation to the IC50 value for cells with wildtype EGFR [25]: 2.046; ratio of the IC50 value for cells with a PACC EGFR mutation to the IC50 value for cells with wildtype EGFR [26]: 32.48; ratio of IC50 for cells with mutant EGFR to IC50 for cells with wildtype EGFR (Mut/WT) [27]: 0.8508
2 | C=CC(=O)N[C@H]1C=C(C)c2c(-c3cnc4ccccc4c3)c3c(N)ncnc3n2C1 [TAS 6417] | 1.093 | 0.02761 | 0.01509 | 0.001513 | 3.055 | 0.032 | 0.004982 | 0.01801 | 0.01675 | 0.2474 | 0.01296 | 0.005254 | 9.536E−05 | 0.3054 | 0.0009364 | 0.01035 | 0.002607 | 0.05773 | 0.02378 | 0.0002637 | ratio of the IC50 value for cells with a PACC EGFR mutation to the IC50 value for cells with wildtype EGFR [21]: 3.055; ratio of IC50 for cells with mutant EGFR to IC50 for cells with wildtype EGFR (Mut/WT) [22]: 0.6671; ratio of IC50 for cells with mutant EGFR to IC50 for cells with wildtype EGFR (Mut/WT) [23]: 3.055; ratio of the IC50 value for cells with a PACC EGFR mutation to the IC50 value for cells with wildtype EGFR [24]: 0.2516; ratio of the IC50 value for cells with a PACC EGFR mutation to the IC50 value for cells with wildtype EGFR [25]: 0.007578; ratio of the IC50 value for cells with a PACC EGFR mutation to the IC50 value for cells with wildtype EGFR [26]: 0.06554; ratio of IC50 for cells with mutant EGFR to IC50 for cells with wildtype EGFR (Mut/WT) [27]: 0.05134
